{"source": "paper PMC5813964", "about": "“The enzymatic processing of α-dystroglycan by MMP-2 is controlled by two anchoring sites distinct from the active site” (PLoS ONE, 2018)", "key": {"[1]": {"biological_target": "T1, whole MMP-2 (Homo sapiens, UniProt P08253)", "T1 construct": "purchased R&D System, London, UK", "T1 sequence (P08253 110-660)": "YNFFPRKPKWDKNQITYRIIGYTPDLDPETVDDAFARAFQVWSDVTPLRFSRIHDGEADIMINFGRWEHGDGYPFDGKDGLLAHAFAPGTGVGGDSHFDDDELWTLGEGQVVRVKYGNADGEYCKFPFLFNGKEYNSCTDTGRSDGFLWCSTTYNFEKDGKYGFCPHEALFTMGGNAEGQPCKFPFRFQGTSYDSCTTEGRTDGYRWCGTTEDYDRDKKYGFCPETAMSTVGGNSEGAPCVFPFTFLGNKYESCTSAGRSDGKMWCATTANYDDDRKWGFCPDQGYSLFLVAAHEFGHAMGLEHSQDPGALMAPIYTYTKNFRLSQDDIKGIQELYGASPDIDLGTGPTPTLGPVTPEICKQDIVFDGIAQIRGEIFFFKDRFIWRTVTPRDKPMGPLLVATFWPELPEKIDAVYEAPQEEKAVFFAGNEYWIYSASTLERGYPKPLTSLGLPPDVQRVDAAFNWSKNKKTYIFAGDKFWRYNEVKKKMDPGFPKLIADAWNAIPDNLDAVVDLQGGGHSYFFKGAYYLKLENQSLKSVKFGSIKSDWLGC", "assay": "MMP-2 proteolysis of fluorogenic peptide, modulation by α-DG C-term peptide", "assay_type": "biochemical", "settings": "global fit Eqs 1-3", "method": "(§1) Human MMP-2 proenzyme 2 was activated by incubating 0.1 mg/ml progelatinase solution with 0.25 mM aminophenyl mercuric acid (Sigma, St. Louis, MO, USA) at 37°C for 30 minutes. Whereas human recombinant cdMMP-2 human was dissolved in a solution of 50 mM Tris/HCl (pH 7.2), 0.1M NaCl and 10 mMCaCl. […] All measurements were performed at 37°C using a solution of 50 mM Tris–HCl, 0.1 M NaCl, 10 mM CaCl2 and 0.05% Brij 35 buffered at pH 7.3.\n(§2) Different concentrations of the α-DG peptide (i.e., final concentration range spanning between 0 μM and 4 μM) were incubated with 0.07 μM active MMP-2 for 30 min at 37°C to allow the interaction to occur. In the case of the cdMMP2 the kinetics were performed employing 0.06 μM cdMMP-2 at different concentration of α-DG (613–651) peptide in the range 0–2 μM. Different concentrations of MCA fluorogenic peptide (i.e: from […]) were then added to this solution. The enzymatic reaction was recorded for 30 minutes at 37°C. The initial velocities were derived from the slopes within the first 15 minutes, which is the time period during which the rate is constant and less than 10% of the substrate was degraded. This ensured a steady-state condition for the first cleavage step, and it was a prerequisite for the subsequent analysis steps.\n(§3) This behavior, which envisages the presence of (at least) two binding sites for the α-DG (613–651) peptide on the catalytic domain of MMP-2, can be kinetically and thermodynamically described by the scheme reported on Fig 5; where, ^0kcat and ^0Km are the observed catalytic parameters in the absence of the peptide, Ka and Kb are the peptide dissociation constants to the free enzyme for the two binding sites, α is the interaction parameter, which quantifies the effect on Km of the α-DG(613–651) peptide binding to the first binding site (α > 1 indicates a negative effect with a decreased affinity, α < 1 a positive effect and α = 1 no effect), β is the interaction parameter which estimates the effect on kcat of the binding of α-DG(613–651) peptide to the first binding site (β > 1 indicates a positive effect with an increased rate constant, β < 1 a negative effect and β = 1 no effect).\n(§4) Data reported in Figs 4 and 5 have been analyzed according to the following equation: [E0]/v=^obsKm/^obskcat⋅1/[S]+1/^obskcat (Eq 1) where [E0] is the total enzyme concentration, ν is the observed velocity (expressed as mol/s), [S] is the substrate concentration, ^obskcat and ^obsKm are the observed catalytic parameters, namely ^obskcat=^0kcat⋅(Ka⋅α+β⋅[Pept])/(Ka⋅α+[Pept]) (Eq 2) and ^obsKm=^0Km⋅α⋅(Ka⋅Kb+Kb⋅[Pept]+[Pept]^2)/Kb⋅(Ka⋅α+[Pept]) (Eq 3) where ^0kcat and ^0Km are the catalytic paramenters in the absence of peptide and all other symbols have the same meaning as described above."}, "[2]": {"biological_target": "T2, cdMMP-2 (isolated catalytic domain of MMP-2) (Homo sapiens, UniProt P08253)", "T2 construct": "the catalytic domain of MMP-2 (without the hemopexin-like domain) retains the capability of degrading; purchased Biomol International", "assay": "cdMMP-2 proteolysis of fluorogenic peptide, modulation by α-DG C-term peptide", "assay_type": "biochemical", "settings": "pH 7.3, 37°C, global fit Eqs 1-3", "method": "as §1, §2, §3, §4"}, "[3]": {"biological_target": "human recombinant MMP-2 (whole enzyme, activated) (human)"}, "[4]": {"biological_target": "human recombinant catalytic domain of MMP-2 (cdMMP-2) (human)"}, "[5]": {"biological_target": "human recombinant MMP-2 (whole enzyme, activated) (human)", "assay": "enzyme inhibition kinetics (fluorogenic substrate); peptide (0-4 μM with 0.07 μM active MMP-2; 0-2 μM with 0.06 μM cdMMP-2) incubated with the enzyme 30 min at 37°C, then MCA-Pro-Leu-Gly-Leu-DPA-Ala-Arg-NH2 added; initial velocities, global fit of Lineweaver-Burk data to a scheme with two peptide binding sites (Eqs 1-3); 50 mM Tris-HCl, 0.1 M NaCl, 10 mM CaCl2, 0.05% Brij 35, pH 7.3, 37°C"}, "[6]": {"biological_target": "human recombinant catalytic domain of MMP-2 (cdMMP-2) (human)", "assay": "enzyme inhibition kinetics (fluorogenic substrate); peptide (0-4 μM with 0.07 μM active MMP-2; 0-2 μM with 0.06 μM cdMMP-2) incubated with the enzyme 30 min at 37°C, then MCA-Pro-Leu-Gly-Leu-DPA-Ala-Arg-NH2 added; initial velocities, global fit of Lineweaver-Burk data to a scheme with two peptide binding sites (Eqs 1-3); 50 mM Tris-HCl, 0.1 M NaCl, 10 mM CaCl2, 0.05% Brij 35, pH 7.3, 37°C"}}, "note": "No end group written: not given here.", "data": [{"molecule": "MCA-Pro-Leu-Gly-Leu-DPA-Ala-Arg-NH2 [fluorogenic substrate, reference compound]", "values": [{"measurement": "^0kcat", "setting": "[1]; whole MMP-2, absence of peptide, MCA-Pro-Leu-Gly-Leu-DPA-Ala-Arg-NH2 substrate, pH 7.3, 37°C, 50 mM Tris–HCl, 0.1 M NaCl, 10 mM CaCl2, 0.05% Brij 35, λexc 325 nm, λem 398 nm", "value": "29.6 ± 4.5", "unit": "s⁻¹"}, {"measurement": "^0Km", "setting": "[1]; whole MMP-2, absence of peptide, pH 7.3, 37°C", "value": "1.5(±0.3)×10^−6 M"}, {"measurement": "^0Km", "setting": "[2]; cd-MMP-2, absence of peptide", "value": "1.9(±0.5)×10^−6 M"}, {"measurement": "^0kcat", "setting": "[2]; cd-MMP-2, absence of peptide", "value": "26.1 ± 4.1", "unit": "s⁻¹"}]}, {"molecule": "VGDPALVLNDIHKKIALVKKLAFAFGDRNCSTITLQNIT [α-DG (613–651) peptide]", "values": [{"measurement": "Kd", "setting": "[1]; whole MMP-2, fluorogenic substrate, peptide 0-4 μM, 30 min preincubation at 37°C, pH 7.3, read-out: Ka (peptide dissociation constant to the free enzyme, first, high affinity non-competitive site)", "value": 35, "unit": "nM"}, {"measurement": "Kb", "setting": "[1]; whole MMP-2, fluorogenic substrate, peptide 0-4 μM, 30 min preincubation at 37°C, pH 7.3, read-out: Kb (peptide dissociation constant to the free enzyme, second, lower affinity competitive active site)", "value": 210, "unit": "nM"}, {"measurement": "Kd", "setting": "[2]; cd-MMP-2, fluorogenic substrate, peptide 0–2 μM, read-out: Ka (peptide dissociation constant to the free enzyme, first, high affinity non-competitive site)", "value": 35, "unit": "nM"}, {"measurement": "Kb", "setting": "[2]; cd-MMP-2, fluorogenic substrate, peptide 0–2 μM, read-out: Kb (peptide dissociation constant to the free enzyme, second, lower affinity competitive active site)", "value": 210, "unit": "nM"}]}, {"molecule": "VGDPALVLNDIHKKIALVKKLAFAFGDRNCSTITLQNIT", "note": "[human α-DG (613–651) peptide]", "values": [{"measurement": "interaction parameter α (effect of peptide at the first site on Km of the fluorogenic substrate)", "setting": "[3]", "value": 1.7}, {"measurement": "interaction parameter β (effect of peptide at the first site on kcat for the fluorogenic substrate)", "setting": "[3]", "value": 0.27}, {"measurement": "interaction parameter β (effect of peptide at the first site on kcat for the fluorogenic substrate)", "setting": "[4]", "value": 0.32}, {"measurement": "Ka (dissociation constant, first site, higher affinity, non-competitive)", "setting": "[5]", "value": 35, "unit": "nM"}, {"measurement": "Kb (dissociation constant, second site, lower affinity, competitive)", "setting": "[5]", "value": 210, "unit": "nM"}, {"measurement": "Ka (dissociation constant, first site, higher affinity, non-competitive)", "setting": "[6]", "value": 35, "unit": "nM"}, {"measurement": "Kb (dissociation constant, second site, lower affinity, competitive)", "setting": "[6]", "value": 210, "unit": "nM"}]}]}
